Source: patent publication US5646246A, “Isolation and structural elucidation of the human cancer cell growth inhibitory cyclic peptides phakellistatin 4, 5, 6, 7, 8 and 9” (Arizona Board of Regents acting on behalf of Arizona State …, priority 1994, dated 1997)
In brackets after ≈: the same amount, converted by molar mass. Where a SMILES comes first, the peptide text is derived from it.

What was measured:
Format in all cases: cell-based
[1] = test system: murine lymphocytic leukemia P388; test: in vitro murine P388 lymphocytic leukemia cell growth inhibition; conditions: dose reducing percent growth to 50%
Excerpt: The following measures are used to express drug activity by giving the drug dose which reduces cell growth to a specified percentage of growth:
(§1) ED50 (P388) and GI50 (HTCL) are the drug doses needed to reduce the percent growth to 50%. There is no mathematical difference between ED50 and GI50, which are both calculated using the same formula. The only difference is historical usage. TGI, (Total Growth Inhibition), is the drug dose needed to yield zero percent growth, i.e., just as many cells at the end of the experiment as were present in the beginning. Whether just as many cells were killed as were produced (steady state), or no growth occurred (total inhibition), cannot be distinguished.
(§2) Each drug is tested at five (5) doses: 100--10--1--0.1--0.01 μg/ml. Percent Growths are calculated for each dose. The two (or three) doses with growth values above, below, (or near to) 50% growth are used to calculate the ED50 /GI50 using a linear regression formula. The log of the dose is used during the regression computation. If no dose yields a growth value under 50%, the results are expressed as: ED50 >(highest dose). If no dose yields growth higher than 50% growth, then ED50 <(lowest dose). Similar calculations are performed for the TGI at 0% growth, and at -50% growth for the LC50.
(§3) At the start of an experiment, cells from the in vitro cell cultures are inoculated into the appropriate tubes or microtiter plates. One set of control tubes/plates is immediately counted to determine the number of cells at the start of the experiment. This is the "baseline count", or "Tzero reading". At the end of the experiment (48 hours later), a second set of control tubes/plates is analyzed to determine the "Control Growth" value. The growth (or death) of cells relative to the initial quantity of cells is used to define the "Percent of Growth".

[2] = test system: NCI human cancer cell line panel; test: NCI human cancer cell line panel, in vitro primary screen; conditions: for in vitro growth inhibitory activity against human cancer cell lines: result in words
Excerpt: Current research in the control of cancer in the U.S. is coordinated by the National Cancer Institute (NCI). To determine whether a substance has anti-cancer properties, the NCI has established a systematic protocol. This protocol, which involves the testing of a substance against a standard cell line panel containing 60 human tumor cell lines, has been verified and is accepted in scientific circles. The protocol, and the established statistical means for analyzing the results obtained by the standardized testing are fully described in the literature. See: Boyd, Dr. Michael R., Principles & Practice of Oncology, PPO Updates, Volume 3, Number 10, October 1989, for a general overview of the testing protocol; Monks, Anne et al., "Feasibility of a High-Flux Anticancer Drug Screen Using a Diverse Panel of Cultured Human Tumor Cell Lines", 83 J. Nat. Cancer Inst., No. 11, 757 (1991); and Paull, K. D., "Display and Analysis of Patterns of Differential Activity of Drugs Against Human Tumor Cell Lines; Development of Mean Graph and COMPARE Algorithm", 81 Journal of the National Cancer Institute Reports, No. 14, 1088, (1989), for a description of the methods of statistical analysis. Each of these references are incorporated herein by this reference thereto.
as §1
LC50, (Lethal Concentration 50%), is the drug concentration which reduces growth to -50%, i.e., removes half of the cells originally present at the beginning of the experiment.
as §2, §3

NCI-H460 = test: human cancer cell line growth inhibition, lung NCI-H460
Excerpt: as §1
(§4) Each drug is tested at five (5) doses: 100--10--1--0.1--0.01 μg/ml. Percent Growths are calculated for each dose. The two (or three) doses with growth values above, below, (or near to) 50% growth are used to calculate the ED50 /GI50 using a linear regression formula. […]
as §3

OVCAR-3 = test: human cancer cell line growth inhibition, ovarian OVCAR-3
Excerpt: as §1, §4, §3

SK-MEL-5 = test: human cancer cell line growth inhibition, melanoma SK-MEL-5
Excerpt: as §1, §4, §3

KM20L2 = test: human cancer cell line growth inhibition, colon KM20L2
Excerpt: as §1, §4, §3

A498 = test: human cancer cell line growth inhibition, renal A498
Excerpt: as §1, §4, §3

SF-295 = test: human cancer cell line growth inhibition, CNS SF-295
Excerpt: as §1, §4, §3

SMILES | ED50 (P388) [1] [µg/mL] | GI50 ([2]; NCI human cancer cell line panel, quadruplicate experiments) [nM] | in vitro growth inhibitory activity against human cancer cell lines [2] | GI50 lung NCI-H460 (NCI-H460) [µg/mL] | GI50 ovarian OVCAR-3 (OVCAR-3) [µg/mL] | GI50 melanoma SK-MEL-5 (SK-MEL-5) [µg/mL] | GI50 colon KM20L2 (KM20L2) [µg/mL] | GI50 renal A498 (A498) [µg/mL] | GI50 CNS SF-295 (SF-295) [µg/mL]
CC[C@H](C)[C@@H]1NC(=O)[C@H](C)NC(=O)[C@H](CCSC)NC(=O)[C@H](C)NC(=O)[C@@H](CC(N)=O)NC(=O)[C@H](Cc2ccccc2)NC(=O)[C@@H]2CCCN2C1=O [phakellistatin 5, cyclo-(Pro-Phe-Asn-Ala-Met-Ala-Ile)] | 0.23 (≈ 0.309 µM) | ~3000 | growth inhibitory activity was also demonstrated |  |  |  |  |  | 
CC[C@H](C)[C@@H]1NC(=O)[C@@H]2CCCN2C(=O)[C@H](CC(C)C)NC(=O)C(Cc2c[nH]c3ccccc23)NC(=O)[C@@H]2CCCN2C(=O)[C@H](Cc2ccccc2)NC(=O)[C@@H]2CCCN2C1=O (stereo partly drawn) [phakellistatin 6, cyclo-(Pro-Trp-Leu-Pro-Ile-Pro-Phe)] | 0.18 (≈ 0.212 µM) |  | growth inhibitory activity was also demonstrated | 0.019 (≈ 0.0223 µM) | 0.025 (≈ 0.0294 µM) | 0.032 (≈ 0.0376 µM) | 0.021 (≈ 0.0247 µM) | 0.078 (≈ 0.0917 µM) | 0.041 (≈ 0.0482 µM)
CC[C@H](C)[C@@H]1NC(=O)[C@@H]2CCCN2C(=O)[C@@H]2CCCN2C(=O)[C@H]([C@@H](C)CC)NC(=O)[C@H](Cc2ccc(O)cc2)NC(=O)[C@@H]2CCCN2C(=O)[C@@H]2CCCN2C(=O)[C@H](CC(C)C)NC(=O)[C@H](C)NC(=O)[C@H](Cc2ccccc2)NC1=O [phakellistatin 7, cyclo-(Pro-Pro-Ile-Phe-Ala-Leu-Pro-Pro-Tyr-Ile)] (cyclo(ALPPYIPPIF)) | 3.0 (≈ 2.7 µM) |  | growth inhibitory activity was also demonstrated |  |  |  |  |  | 
CC[C@H](C)[C@@H]1NC(=O)[C@@H]2CCCN2C(=O)[C@@H]2CCCN2C(=O)[C@H]([C@@H](C)CC)NC(=O)[C@H](Cc2ccc(O)cc2)NC(=O)[C@@H]2CCCN2C(=O)[C@@H]2CCCN2C(=O)[C@H](CC(C)C)NC(=O)[C@H](C(C)C)NC(=O)[C@H](Cc2ccccc2)NC1=O [phakellistatin 8, cyclo-(Pro-Pro-Ile-Phe-Val-Leu-Pro-Pro-Tyr-Ile)] (cyclo(FVLPPYIPPI)) | 4.1 (≈ 3.6 µM) |  | growth inhibitory activity was also demonstrated |  |  |  |  |  | 
CC[C@H](C)[C@@H]1NC(=O)[C@@H]2CCCN2C(=O)[C@@H]2CCCN2C(=O)[C@H](C(C)C)NC(=O)[C@H](Cc2ccc(O)cc2)NC(=O)[C@@H]2CCCN2C(=O)[C@@H]2CCCN2C(=O)[C@H](CC(C)C)NC(=O)[C@H](C(C)C)NC(=O)[C@H](Cc2ccccc2)NC1=O [phakellistatin 9, cyclo-(Pro-Pro-Ile-Phe-Val-Leu-Pro-Pro-Tyr-Val)] (cyclo(FVLPPYVPPI)) | 1.7 (≈ 1.51 µM) |  | growth inhibitory activity was also demonstrated |  |  |  |  |  | 
